Holding throughout (test): inhibition of tumour cell growth, NCI panel, 48 h
Experiment [1] deals with A549 NSCLC.
Experiment [2] relates to OVCAR-8 ovarian.
The subject of experiment [3] is UACC-62 melanoma.
Experiment [4] relates to MCF7 breast.
Experiment [5] deals with MDA-MB-435.
The test system of experiment [6] is HOP-62 NSCLC.
For experiment [7], the system named is K-562 leukemia.
For experiment [8], the system named is SK-MEL-28 melanoma.
Experiment [9] relates to NCI-H23 lung.
Experiment [10] has as its system PC-3 prostate.

The values below come from PubChem BioAssay (NCI).

Several values for one entry are separate records, joined by “and”; a condition that tells them apart may be missing. Equal values may be shown once.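 Method: 48-hour compound exposure of cells in 96-well plates, five concentrations, linear interpolation of endpoints. GI50 is the concentration that inhibits growth by half. TGI denotes the concentration required for complete inhibition of growth.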

For `CCN(CC)CCC(CNc1ccnc2cc(Cl)ccc12)c1ccc(OC)cc1` (stereo not given), the GI50 in experiment [1] was 16.3 µM and 11.3 µM; in [2] it was 5.76 µM and 4.78 µM; in experiment [3], 2310 nM and 1860 nM; in experiment [4] it was 4980 nM and 4500 nM; in experiment [5] it was 1910 nM and 1650 nM; in [6], 14.4 µM and 9.7 µM. Besides, the GI50 is 1790 nM and 1190 nM in experiment [7]; 1750 nM and 1870 nM in [8]; 9400 nM and 10000 nM in experiment [9]; 19500 nM and 9850 nM in experiment [10]. In addition, the TGI in experiment [1] is 32.5 µM and 26.1 µM; in experiment [2], 27.2 µM and 19.3 µM; in experiment [3], 5.02 µM and 4.01 µM; in [4], 21.1 µM and 17.9 µM; in [5], 4.12 µM and 3.71 µM; in [6], 39.2 µM and 34 µM. The TGI in experiment [7] is 5.76 µM and 4.14 µM; in experiment [8], 3.4 µM and 3.42 µM; in experiment [9] it was 26.9 µM and 28.6 µM; in [10], 76.3 µM and > 100 µM.
`COc1ccc2c(c1)CCCC(Br)C2=O` (stereo not given): the TGI in [1] was greater than 43.6 µM; in experiment [2], greater than 31.9 µM; in experiment [3] it was 8.88 µM; in experiment [4], 15.1 µM; in [5], 5.99 µM; in experiment [6], 33.4 µM. The TGI was 18.7 µM in experiment [7], 23.3 µM in [8], 26.3 µM in experiment [9] and 16.7 µM in [10].
For `O=C(Nc1ccc(Cl)cc1F)c1ccccc1O`, the GI50 in experiment [1] is 3.6 µM; in experiment [2], 3.61 µM; in experiment [3], 2080 nM; in [4], 1500 nM; in experiment [5], 3370 nM; in experiment [6], 2.74 µM. Besides, the GI50 in experiment [7] was 3500 nM; in experiment [8], 3900 nM; in experiment [9], 2120 nM; in [10], 2770 nM. Also, the TGI in experiment [1] was greater than 100 µM; in experiment [2], greater than 100 µM; in experiment [3] it was 9.24 µM; in experiment [4], 12.6 µM; in experiment [5], 30.7 µM; in experiment [6], 21.7 µM. In addition, the TGI in [7] is greater than 100 µM; in experiment [8], 21.6 µM; in experiment [9] it was 6.13 µM; in experiment [10], 10.9 µM.
Take `CCCCCCCCCCCCOC1C(C(COC2OC(C3COC(C)(C)O3)C3OC(C)(C)OC23)NC(=O)Nc2ccc(C(=O)O)cc2)OC2OC(C)(C)OC21` (stereo not given): the GI50 in experiment [1] is 3.34 µM; in experiment [2] it was 3.13 µM; in [3], 1800 nM; in experiment [4], 2840 nM; in experiment [5], 2630 nM; in experiment [6], 3.07 µM. Further, the GI50 was 3790 nM in experiment [7], 3160 nM in experiment [8], 2640 nM in experiment [9] and 2600 nM in [10]. Also, the TGI in [1] was determined as 10.9 µM; in experiment [2], 12 µM; in [3], 3.56 µM; in experiment [4], 10.8 µM; in experiment [5], 7.91 µM; in [6], 10.4 µM. In addition, the TGI in [7] is greater than 100 µM; in [8], 13 µM; in experiment [9] it was 6.83 µM; in [10], 7.58 µM.
Turning to `O=C(Cc1ccc(/C=C/C(=O)c2ncc[nH]2)cc1)Nc1cc(F)c(F)c(F)c1`, the GI50 in experiment [1] was 4.13 µM; in experiment [2], 5.58 µM; in experiment [3], 3710 nM; in experiment [4], 2380 nM; in experiment [5], 4250 nM; in experiment [6], 3.71 µM. Besides, the GI50 in experiment [7] was 2310 nM; in [8] it was 4150 nM; in [9] it was 3820 nM; in experiment [10] it was 3800 nM. Moreover, the TGI is 17.8 µM in [1]; greater than 25 µM in [2]; 8.91 µM in experiment [3]; 7.76 µM in experiment [4]; 12.8 µM in [5]; 8.12 µM in experiment [6]. The TGI in experiment [7] was greater than 25 µM; in experiment [8], 8.09 µM; in experiment [9], 9.11 µM; in experiment [10], 9.12 µM.
On to `COc1ccc(/C=C(/C(=O)N2CCN(c3ccccc3)CC2)c2cc(OC)c(OC)c(OC)c2)cc1O`, for which the GI50 in [1] was 0.764 µM; in [2], 0.419 µM; in [3], 332 nM; in experiment [4], 307 nM; in experiment [5] it was 150 nM; in experiment [6] it was 0.55 µM. Further, the GI50 in experiment [7] is 296 nM; in experiment [8] it was 671 nM; in experiment [9] it was 938 nM; in [10], 580 nM. In addition, the TGI is greater than 100 µM in experiment [1]; greater than 100 µM in experiment [2]; greater than 100 µM in experiment [3]; greater than 100 µM in experiment [4]; 0.514 µM in experiment [5]; greater than 100 µM in [6]. In addition, the TGI in experiment [7], in [8], in [9] and in experiment [10] was greater than 100 µM throughout.
As to `C=C1CC[C@@H]2[C@](C)(COC(C)=O)[C@H](OC(C)=O)CC[C@@]2(C)[C@@H]1CC(Sc1ccccc1)C1=CCOC1=O` (stereo not given in full), the GI50 in [1] was 2.73 µM; in experiment [2], 1.46 µM; in experiment [3], 1300 nM; in experiment [4] it was 538 nM; in experiment [5], 1410 nM; in experiment [6] it was 2.89 µM. Further, the GI50 in experiment [7] is 699 nM; in experiment [8], 1620 nM; in experiment [9], 1780 nM; in experiment [10], 1840 nM. Also, the TGI in experiment [1] is 7.77 µM; in [2] it was 4.7 µM; in experiment [3] it was 3.24 µM; in experiment [4], 2.35 µM; in experiment [5] it was 3.58 µM; in experiment [6] it was 5.52 µM. Besides, the TGI came to 3.69 µM in experiment [7], 3.29 µM in [8], 3.67 µM in experiment [9] and 10.1 µM in experiment [10].
